Publication PMC12930396, “Positive modulators of N-methyl-D-aspartate receptor: structure–activity relationship study on steroidal C-17 and C-20 oxime ethers” (RSC Advances, 2026)

Tests used:
in vitro [1] = conditions: pH 7.4
Experimental: The reactions were terminated by the addition of four volumes of ice-cold methanol, mixed vigorously, and left at −20 °C for 1h. After that, the samples were centrifuged and the supernatants were analysed by means of ECHO-MS® System (Sciex, Framingham, MA, USA). Zero time points were prepared by adding ice-cold methanol to the mixture of the compound with cofactors before the addition of microsomes. […] Intrinsic clearance (CLint) was calculated using the following formula: [drawing 4] where V is the incubation volume per milligram of microsomal protein (µL mg^−1) and t1/2 is the microsomal half-life.

GluN1/GluN2B receptors = biological target: T1, GluN1/GluN2B receptors (Rattus norvegicus, UniProt P35439+Q00960); assay: Patch-clamp: modulation of glutamate-induced currents of recombinant GluN1/GluN2B receptors expressed in HEK293 cells; type: cell-based
T1 construct: expressed in transfected cells; host or cells: HEK293 cells (ATCC No. CRL-1573)
T1 sequence (Q00960 27-1482, other chains not shown): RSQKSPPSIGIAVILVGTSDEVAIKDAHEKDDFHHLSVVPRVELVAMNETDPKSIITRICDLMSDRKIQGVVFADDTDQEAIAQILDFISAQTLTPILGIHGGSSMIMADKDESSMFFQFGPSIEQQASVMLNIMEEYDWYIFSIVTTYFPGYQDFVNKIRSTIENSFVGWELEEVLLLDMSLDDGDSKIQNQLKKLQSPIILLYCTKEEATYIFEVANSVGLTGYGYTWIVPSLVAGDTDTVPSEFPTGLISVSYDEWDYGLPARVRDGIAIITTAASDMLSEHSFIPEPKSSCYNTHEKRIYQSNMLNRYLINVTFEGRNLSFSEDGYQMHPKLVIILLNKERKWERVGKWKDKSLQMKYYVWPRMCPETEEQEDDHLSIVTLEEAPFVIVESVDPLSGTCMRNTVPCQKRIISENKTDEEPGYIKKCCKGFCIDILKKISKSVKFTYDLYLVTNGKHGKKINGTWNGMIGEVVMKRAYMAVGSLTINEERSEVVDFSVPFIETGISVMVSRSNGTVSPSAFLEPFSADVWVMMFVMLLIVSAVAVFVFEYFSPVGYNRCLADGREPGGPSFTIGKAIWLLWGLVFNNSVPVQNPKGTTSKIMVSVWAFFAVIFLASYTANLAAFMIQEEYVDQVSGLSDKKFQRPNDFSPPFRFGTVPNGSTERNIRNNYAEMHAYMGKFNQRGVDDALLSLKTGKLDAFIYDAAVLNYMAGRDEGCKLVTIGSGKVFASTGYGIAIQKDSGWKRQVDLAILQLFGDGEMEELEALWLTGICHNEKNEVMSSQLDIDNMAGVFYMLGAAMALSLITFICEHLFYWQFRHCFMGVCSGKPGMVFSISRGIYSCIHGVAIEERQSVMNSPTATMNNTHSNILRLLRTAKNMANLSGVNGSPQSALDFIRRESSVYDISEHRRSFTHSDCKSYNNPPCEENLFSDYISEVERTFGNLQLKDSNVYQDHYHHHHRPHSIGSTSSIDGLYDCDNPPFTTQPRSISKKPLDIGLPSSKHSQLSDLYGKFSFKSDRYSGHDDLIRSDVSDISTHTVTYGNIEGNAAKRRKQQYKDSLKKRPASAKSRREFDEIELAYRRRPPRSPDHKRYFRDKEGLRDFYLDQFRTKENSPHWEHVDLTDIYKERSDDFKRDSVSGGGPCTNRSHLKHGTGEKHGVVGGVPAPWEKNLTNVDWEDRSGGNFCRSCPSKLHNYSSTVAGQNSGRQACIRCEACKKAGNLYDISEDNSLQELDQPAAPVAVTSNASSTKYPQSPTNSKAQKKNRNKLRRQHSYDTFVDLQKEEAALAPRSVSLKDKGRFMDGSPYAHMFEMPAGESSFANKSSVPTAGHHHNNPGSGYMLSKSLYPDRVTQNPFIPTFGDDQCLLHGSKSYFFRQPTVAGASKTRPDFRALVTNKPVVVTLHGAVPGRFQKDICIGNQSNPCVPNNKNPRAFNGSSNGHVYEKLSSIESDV
Experimental: To investigate the effect of compounds 11–23 on the activity of NMDARs, electrophysiological measurements were performed on HEK293 cells that were co-transfected with cDNAs containing genes encoding for the rat GluN1-1a and GluN2B subunits. The degree of modulation (E; potentiation/inhibition) for the newly synthesized compounds was determined using the following formula: [drawing 1] where Ie is the value of the current amplitude during glutamate and compound coapplication, and Ia is the current amplitude value for glutamate application. […] The results are presented as mean ± standard error of the mean (SEM), with n equal to the number of independent measurements. One-way analysis of variance (ANOVA) was used for multiple comparisons (unless otherwise stated, a value of P ≤ 0.05 was used for the determination of significance).
We have evaluated the relationship between oxime derivatives 11–23 and their modulatory effect on recombinant GluN1/GluN2B receptors. Due to the […] effect of neurosteroid-based PAMs at NMDARs[20,44]
HEK293 cells (American Type Culture Collection, ATCC No. CRL-1573, Rockville, MD, USA) were cultured in Opti-MEM I (Invitrogen, Carlsbad, CA, USA) supplemented with 5% fetal bovine serum (FBS; PAN Biotech, Aidenbach, Germany) at 37 °C in 5% CO2. 24 h before transfection, HEK293 cells were plated in 24-well plates at a density of 2 × 10^5 cells per well. The next day, the cells were transfected with cDNA encoding rat GluN1-1a (GluN1; GenBank accession number U08261)[56] and GluN2B (GenBank accession number M91562)[57] subunits (in the pCI-neo expression vector), along with green fluorescent protein (GFP; in the pQBI 25 vector, Takara, Tokyo, Japan). Briefly, equal amounts (200 ng) of cDNAs encoding GluN1-1a, GluN2B, and GFP were mixed with 0.6 µl of Matra-A reagent (IBA, Gottingen, Germany) in 50 µL of Opti-MEM I and added to confluent HEK293 cells cultured in 24-well plates. After trypsinization, the cells were resuspended in Opti-MEM I containing 1% FBS, supplemented with 20 mM MgCl2, 1 mM D,L-2-amino-5-phosphonovaleric acid, 3 mM kynurenic acid, and 1 µM ketamine, and plated on 30 mm glass coverslips coated with collagen and poly-L-lysine. Transfected cells were identified by GFP epifluorescence. Electrophysiology experiments were performed 24–48 h after transfection.
Whole-cell current recordings, voltage-clamped at a holding potential of −60 mV, were performed at room temperature using a patch-clamp amplifier (Axopatch 200B; Molecular Devices, Sunnyvale, CA, USA) after capacitance and series resistance (<10 MΩ) compensation (80–90%). NMDAR current responses were low-pass filtered at 2 kHz, digitally sampled at 5 kHz, and analysed using pClamp software (version 10.6; Molecular Devices). Patch pipettes (3–5 MΩ), pulled from borosilicate glass, were filled with an intracellular solution (ICS) containing (in mM): 15 CsCl, 10 BAPTA, 3 MgCl2, 1 CaCl2, 120 gluconic acid, 10 HEPES, and 2 ATP-Mg salt (pH adjusted to 7.2 with CsOH). The extracellular solution (ECS) contained (in mM): 160 NaCl, 2.5 KCl, 0.2 EDTA, 10 glucose, 10 HEPES, and 0.7 CaCl2 (pH adjusted to 7.3 with NaOH). NMDAR responses were induced by 1 µM glutamate and 30 µM glycine. 1% DMSO was present in all control and testing solutions. Solution applications were performed using a microprocessor-controlled multibarrel fast-perfusion system with a solution exchange rate around the cells of ∼10 ms.[58]

in vitro [2] = conditions: pH 7.4; remark: listed apart in the source
Experimental: Permeability was quantified using permeability coefficients (Pe) and mass retention, the latter representing the proportion of compound retained in the membrane.
Permeation experiments were conducted in polystyrene 96-well filter plates with PVDF membrane pre-coated with structured layers of phospholipids (Corning Gentest™) according to the manufacturer's instructions. Briefly, the plate was warmed to room temperature, and meanwhile, the solutions of the compounds were diluted from 10 mM DMSO stocks to TRIS–HCl buffer pH 7.4 to reach a 100 µM final concentration. The DMSO concentration in the samples was 1%. Then, 300 µL of these solutions were transferred into the donor (receiver) plate wells, and 200 µL of the (TRIS) buffer was added to the acceptor (filter) plate wells. The filter plate and receiver plate were assembled and incubated for 5 h on an orbital shaker (300 rpm). After this, the concentration of the tested substances in both the donor and acceptor compartments was determined with use of LC/MS. Liquid chromatography was performed using an ExionLC AD pump and autosampler from Sciex (Framingham, MA, USA). […] The mobile phase flow rate was 300 µL min^−1. The column Synergi Fusion-RP from Phenomenex (Torrance, CA, USA) was used and was kept at 40 °C during the analysis.

For `CCON=C(C)C1CCC2C3CC=C4CC(OC(=O)CCCC(=O)O)CCC4(C)C3CCC12C` (stereo not drawn) [Compound 12, 20-Oxo-pregn-5-en-3β-yl hemiglutarate O-ethyloxime], which “Metabolic stability in rat liver microsomes” value (in vitro [1]; 1 h, 10 µM) is on record?
Its value is “no detectable metabolism after 60 min”.

And the half-life at 10 µM (in vitro [1]; rat, microsomes)?
Its half-life at 10 µM is over 1 h.

And the “Efficacy relative to PES” value (GluN1/GluN2B receptors; Emax compared with PES)?
The value was “over 6 fold”.

And the “h ± SEM (apparent Hill coefficient)” value (GluN1/GluN2B receptors; concentration-response fit, mean ± SEM)?
Its value is 1.7 ± 0.3.

What about the EC50 (GluN1/GluN2B receptors; half-maximal potentiation of currents evoked by 1 µM glutamate, HEK293, mean ± SEM) of the same compound?
The EC50 was 8.7 ± 1.1 µM.

What about the Emax (GluN1/GluN2B receptors; maximal potentiation of currents evoked by 1 µM glutamate and 30 µM glycine, HEK293, mean ± SEM) of the same compound?
The Emax was 673 ± 121%.

And the “PAMPA permeability Retention (mass retention)” value (in vitro [2]; 5 h, 100 µM)?
Its value is 97%.

What about the Papp at 5 h, 100 µM (in vitro [2]; PAMPA) of the same compound?
Its Papp at 5 h, 100 µM is 3.89 ×10⁻⁶ cm/s.
